From PubChem BioAssay (NCI)
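Step 1: Grow cells in 96-well plates. Step 2: Expose to compound for 48 hours at 5 concentrations. Step 3: Interpolate endpoints linearly; if unreached, use highest concentration. TGI: concentration producing complete growth inhibition.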

Key:
Test in all cases: NCI tumour cell line growth inhibition, 48 h
XF 498 CNS = system: XF 498 CNS
DMS 114 small cell lung = system: DMS 114 small cell lung
DMS 273 small cell lung = system: DMS 273 small cell lung
HOP-18 NSCLC = system: HOP-18 NSCLC
KM20L2 colon = system: KM20L2 colon
RXF-631 renal = system: RXF-631 renal
SNB-78 CNS = system: SNB-78 CNS
SN12K1 renal = system: SN12K1 renal
P388 leukemia = system: P388 leukemia
P388/ADR leukemia = system: P388/ADR leukemia

Row | SMILES | TGI (XF 498 CNS) [µM] | TGI (DMS 114 small cell lung) [µM] | TGI (DMS 273 small cell lung) [µM] | TGI (HOP-18 NSCLC) [µM] | TGI (KM20L2 colon) [µM] | TGI (RXF-631 renal) [µM] | TGI (SNB-78 CNS) [µM] | TGI (SN12K1 renal) [µM] | TGI (P388 leukemia) [µM] | TGI (P388/ADR leukemia) [µM]
1 | CCCN(CCC)c1c([N+](=O)[O-])cc(S(N)(=O)=O)cc1[N+](=O)[O-] | 30.2 | 40.3 | 33.8 | 36.2 | 37.4 | 35.5 |  |  |  | 
2 | O=C(c1ccco1)N(C(=S)N1CCN(c2ccccc2)CC1)c1ccccc1 |  | > 100 | > 100 | > 100 | > 100 |  | > 100 |  |  | 
3 | CC1=C(N2CC2)C(=O)c2nc3n(c2C1=O)CCC3O (configuration not stated) | 29.8 | 2.68 | 1.68 | > 100 | 5.95 |  | 0.131 |  |  | 
4 | Nc1nc(N)c2ncn(CC(CO)CC(c3ccccc3)P(=O)(O)O)c2n1 (configuration not stated) | > 100 | > 100 | > 100 | > 100 | > 100 |  | > 100 |  |  | 
5 | CC(NCCS(=O)(=O)O)C(=O)O (configuration not stated) | > 100 | > 100 | > 100 | > 100 | > 100 |  | > 100 | > 100 | > 100 | > 100
6 | CCCc1ccc(N=Cc2cc(OC)c(OC)c(OC)c2)cc1 | > 100 | > 60.6 | > 100 | > 100 | > 100 |  | > 100 |  |  | 
7 | COc1cc(C(C#N)NNC(=O)c2ccccc2O)ccc1O (configuration not stated) |  |  |  | 97.9 | > 100 |  | > 100 |  |  | 
8 | CC1=C2N3C[C@@H](n4c(=O)n(C)c(=O)n43)C23CCC1n1c(=O)n(C)c(=O)n13 | > 100 | 76.3 | > 100 | > 100 | > 100 |  | > 100 |  |  | 
9 | COc1cccc2c1C1=CC(=O)CCC1C(C)(C)O2 (configuration not stated) |  | 61.5 | > 100 | > 100 | > 100 | > 100 | > 100 |  |  | 
10 | Cc1ccc(-n2c(C)nc3c2C(=O)c2ccccc2C3=O)cc1 | > 100 |  | > 100 |  | > 100 |  | > 100 |  |  | 
